Data: patent US7842710B2, “Carboxamides” (Bayer Cropscience AG, priority 2004, dated 2010)

Tests used:
Puccinia recondita = assay: Puccinia test (wheat)/protective; format: in vivo; conditions: 240 h, protective, application rate 500 g/ha, evaluation ten days after inoculation, 0% = control, 100% = no infestation, read-out: Degree of effectiveness in %
Protocol: [table] To produce an appropriate active ingredient preparation, one part by weight of the active substance is mixed with the specified quantities of solvent and emulsifying agent, and the concentrate is diluted with water to the desired concentration. Young plants are sprayed with the active ingredient preparation at the specified application rate to test the effectiveness of protection. After the sprayed coating has dried, the plants are sprayed with a conidia suspension of Puccinia recondita. The plants are kept in an incubator at 20° C. and 100% relatively humidity for 48 hours. Then the plants are placed in a greenhouse at a temperature of about 20° C. and a relatively humidity of 80%, in order to promote the development of rust spots. The evaluation is performed ten days after the inoculation. A degree of effectiveness rating of 0% corresponds to the control, with 100% indicating no infestation observed.

[1] = logP determination by HPLC on a reverse phase column (C18), EEC Directive 79/831 Annex V.A8; format: physicochemical; conditions: HPLC C18, 43° C., Table 1
Protocol: The specified logP values are determined by HPLC on a reverse phase column (C18) in accordance with EEC Directive 79/831 Annex V.A8. Temperature: 43° C. Eluents for the measurement in the acid range (pH 2.3): 0.1% aqueous phosphoric acid, acetonitrile; linearer gradient of 10% acetonitrile to 90% acetonitrile. Calibration is performed with unbranched alkyl-2-ones (with 3 to 16 carbon atoms) with known logP values (determination of the logP values based on retention times by linear interpolation between two sequential alkyl ketones).

Row | SMILES | pest or weed control at 500 g/ha (Puccinia recondita) [%] | logP (pH 2.3) [1]
1 | Cc1nn(C)c(F)c1C(=O)Nc1ccccc1C(C)OC(C)C (stereo not drawn) | 100 | –
2 | CCC(C)SC(C)c1ccccc1NC(=O)c1sccc1C (stereo not drawn) | 100 | –
3 | CC(C)SC(C)c1ccccc1NC(=O)c1c(C(F)(F)F)nn(C)c1F (stereo not drawn) | 96 | –
4 | Cc1nn(C)c(Cl)c1C(=O)Nc1ccccc1C(C)SC(C)C (stereo not drawn) | 100 | –
5 | CCCC(C)SC(C)c1ccccc1NC(=O)c1c(C)nn(C)c1Cl (stereo not drawn) | 100 | –
6 | Cc1nn(C)c(Cl)c1C(=O)Nc1ccccc1C(C)SC1CCCC1 (stereo not drawn) | 100 | –
7 | CC(=O)OC(C)(C)CCc1ccccc1NC(=O)c1ccccc1C(F)(F)F [compound 61] | – | 3.30
8 | Cn1cc(C(=O)Nc2ccccc2CCO)c(C(F)(F)F)n1 [compound 62] | – | 1.62
9 | Cc1nn(C)c(F)c1C(=O)Nc1ccccc1CCO [compound 63] | – | 1.21
10 | CC(C)C(=O)OCCc1ccccc1NC(=O)c1cn(C)nc1C(F)(F)F [compound 64] | – | 2.79
11 | Cn1cc(C(=O)Nc2ccccc2CCO[Si](C)(C)C(C)(C)C)c(C(F)(F)F)n1 [compound 65] | – | 4.59
12 | Cn1cc(C(=O)Nc2ccccc2CCOC(=O)C(Cl)Cl)c(C(F)(F)F)n1 [compound 66] | – | 2.76
13 | Cc1nn(C)c(F)c1C(=O)Nc1ccccc1CCOC(=O)C(C)C [compound 67] | – | 2.40
14 | Cc1nn(C)c(F)c1C(=O)Nc1ccccc1CCOC(=O)C(Cl)Cl [compound 68] | – | 2.43
15 | Cc1nn(C)c(F)c1C(=O)Nc1ccccc1CCO[Si](C)(C)C(C)(C)C [compound 69] | – | 4.49
16 | CCCC(C)SC(C)c1ccccc1NC(=O)c1ccccc1C(F)(F)F (stereo not drawn) [compound 70] | – | 4.71
17 | CCCC(C)SC(C)c1ccccc1NC(=O)c1ccccc1Cl (stereo not drawn) [compound 72] | – | 4.60
18 | CCC(C)SC(C)c1ccccc1NC(=O)c1ccccc1Cl (stereo not drawn) [compound 73] | – | 4.17
19 | CCC(C)SC(C)c1ccccc1NC(=O)c1ccoc1C (stereo not drawn) [compound 74] | – | 4.17
20 | CCC(C)SC(C)c1ccccc1NC(=O)c1ccccc1C(F)(F)F (stereo not drawn) [compound 75] | – | 4.31
21 | CCCC(C)SC(C)c1ccccc1NC(=O)c1ccoc1C (stereo not drawn) [compound 77] | – | 4.61
22 | CCC(C)SC(C)c1ccccc1NC(=O)c1sc(C)nc1C(F)F (stereo not drawn) [compound 78] | – | 3.95

Row | SMILES | pest or weed control at 500 g/ha (Puccinia recondita) [%] | logP (pH 2.3) [1]
23 | CCCC(C)SC(C)c1ccccc1NC(=O)c1sc(C)nc1C(F)F (stereo not drawn) [compound 79] | – | 4.36
24 | CCC(C)SC(C)c1ccccc1NC(=O)c1cn(C)nc1C(F)F (stereo not drawn) [compound 80] | – | 3.38
25 | CCCC(C)SC(C)c1ccccc1NC(=O)c1ccccc1Br (stereo not drawn) [compound 81] | – | 4.63
26 | CCCC(C)SC(C)c1ccccc1NC(=O)c1cn(C)nc1C (stereo not drawn) [compound 82] | – | 3.27
27 | CCC(C)SC(C)c1ccccc1NC(=O)c1ccccc1Br (stereo not drawn) [compound 83] | – | 4.21
28 | CCC(C)SC(C)c1ccccc1NC(=O)c1cn(C)nc1C (stereo not drawn) [compound 84] | – | 2.90
29 | CCCC(C)SC(C)c1ccccc1NC(=O)c1cn(C)nc1C(F)F (stereo not drawn) [compound 85] | – | 3.76
30 | CCC(C)SC(C)c1ccccc1NC(=O)C1=C(C)OCCS1 (stereo not drawn) [compound 86] | – | 4.07
31 | CCCC(C)SC(C)c1ccccc1NC(=O)C1=C(C)OCCS1 (stereo not drawn) [compound 87] | – | 4.53
32 | CCC(C)SC(C)c1ccccc1NC(=O)c1cn(C)cc1C(F)(F)F (stereo not drawn) [compound 88] | – | 3.92
33 | CCC(C)SC(C)c1ccccc1NC(=O)C1=C(C)OCCS1 (stereo not drawn) [compound 89] | – | 4.10
34 | Cc1sccc1C(=O)Nc1ccccc1C(C)SC1CCCC1 (stereo not drawn) [compound 90] | – | 3.16
35 | Cc1occc1C(=O)Nc1ccccc1C(C)SC1CCCC1 (stereo not drawn) [compound 91] | – | 4.31
36 | CC(SC1CCCC1)c1ccccc1NC(=O)c1ccccc1Cl (stereo not drawn) [compound 92] | – | 4.29
37 | CC(SC1CCCC1)c1ccccc1NC(=O)c1ccccc1Br (stereo not drawn) [compound 93] | – | 4.34
38 | Cc1nc(C(F)(F)F)c(C(=O)Nc2ccccc2C(C)SC2CCCC2)s1 (stereo not drawn) [compound 94] | – | 4.24
39 | Cc1nn(C)cc1C(=O)Nc1ccccc1C(C)SC1CCCC1 (stereo not drawn) [compound 95] | – | 3.04
40 | CC(SC1CCCC1)c1ccccc1NC(=O)c1cn(C)nc1C(F)(F)F (stereo not drawn) [compound 96] | – | 3.76
41 | CC(SC1CCCC1)c1ccccc1NC(=O)c1ccccc1C(F)(F)F (stereo not drawn) [compound 97] | – | 4.41
42 | CC1=C(C(=O)Nc2ccccc2C(C)SC(C)C)SCCO1 (stereo not drawn) [compound 98] | – | 3.65
43 | Cc1ccccc1C(=O)Nc1ccccc1C(C)SC1CCCC1 (stereo not drawn) [compound 99] | – | 4.44
44 | Cc1nn(C)c(F)c1C(=O)Nc1ccccc1C(C)SC1CCCC1 (stereo not drawn) [compound 100] | – | 4.03

Row | SMILES | pest or weed control at 500 g/ha (Puccinia recondita) [%] | logP (pH 2.3) [1]
45 | CC(SC1CCCC1)c1ccccc1NC(=O)c1cn(C)nc1C(F)F (stereo not drawn) [compound 101] | – | 3.48
46 | Cc1occc1C(=O)Nc1ccccc1C(C)OC(C)C (stereo not drawn) [compound 126] | – | 3.80
47 | CC(C)OC(C)c1ccccc1NC(=O)c1cn(C)nc1C(F)(F)F (stereo not drawn) [compound 127] | – | 3.14
48 | CC1=C(C(=O)Nc2ccccc2C(C)OC(C)C)SCCO1 (stereo not drawn) [compound 128] | – | 3.47
49 | CC(C)OC(C)c1ccccc1NC(=O)c1cn(C)nc1I (stereo not drawn) [compound 129] | – | 2.75
50 | CC(C)OC(C)c1ccccc1NC(=O)c1ccccc1I (stereo not drawn) [compound 130] | – | 3.83
51 | Cc1nc(C(F)F)c(C(=O)Nc2ccccc2C(C)OC(C)C)s1 (stereo not drawn) [compound 131] | – | 3.58
52 | CC(C)OC(C)c1ccccc1NC(=O)c1cccnc1Cl (stereo not drawn) [compound 132] | – | 2.72
53 | Cc1nc(C(F)(F)F)c(C(=O)Nc2ccccc2C(C)OC(C)C)s1 (stereo not drawn) [compound 133] | – | 3.65
54 | CC(C)OC(C)c1ccccc1NC(=O)c1ccccc1C(F)(F)F (stereo not drawn) [compound 134] | – | 3.81
55 | CC(C)OC(C)c1ccccc1NC(=O)c1cn(C)nc1C(F)F (stereo not drawn) [compound 135] | – | 2.89
56 | CC(C)OC(C)c1ccccc1NC(=O)c1cnn(C)c1C(F)F (stereo not drawn) [compound 136] | – | 3.67
57 | CC(C)OC(C)c1ccccc1NC(=O)C1=C(C(F)(F)F)OCCS1 (stereo not drawn) [compound 137] | – | 3.64
58 | CC(C)OC(C)c1ccccc1NC(=O)c1cn(C)cc1C(F)(F)F (stereo not drawn) [compound 138] | – | 5.60
59 | Cn1cc(C(=O)Nc2ccccc2CO)c(C(F)(F)F)n1 [compound 178] | – | 1.61
60 | CC(C)SC(C)c1ccccc1NC(=O)c1cn(C)nc1C(F)(F)F (stereo not drawn) [drawing 494] | 100 | –
61 | Cc1nc(C(F)F)c(C(=O)Nc2ccccc2CSC(C)C)s1 [drawing 495] | 93 | –
62 | CCCC(C)SC(C)c1ccccc1NC(=O)c1sc(C)nc1C(F)(F)F (stereo not drawn) [drawing 496] | 100 | –
63 | CCC(C)SC(C)c1ccccc1NC(=O)c1c(C)nn(C)c1F (stereo not drawn) [drawing 497] | 100 | –
64 | CCC(C)SC(C)c1ccccc1NC(=O)c1cn(C)nc1C(F)(F)F (stereo not drawn) [drawing 498] | 100 | –
65 | CC(C)OC(C)c1ccccc1NC(=O)c1cn(C)nc1C(F)F (stereo not drawn) [drawing 499] | 100 | –
66 | CC(C)OC(C)c1ccccc1NC(=O)c1cn(C)nc1C(F)(F)F (stereo not drawn) [drawing 500] | 100 | –
